In paper PMC7157554, “Anti-Trypanosomal Proteasome Inhibitors Cure Hemolymphatic and Meningoencephalic Murine Infection Models of African Trypanosomiasis” (Tropical Medicine and Infectious Disease, 2020):
Values after ≈ are worked out from the molar mass of the structure shown. Like-named read-outs stand apart in the source and are kept apart here.

Key:
[1] = Rat brain tissue binding; assay type: in vitro ADME; conditions: rat brain tissue homogenate
Procedure: (§1) Test compounds’ solubility was determined in a high-throughput thermodynamic solubility assay, as described previously. The PAMPA (parallel artificial membrane) assays were carried out, using a standard protocol. Plasma protein binding was determined by using mouse blood, whilst brain tissue binding was determined by using rat brain tissue homogenate. Intrinsic metabolic clearances were determined in mouse liver microsomes, using the compound depletion approach and LC–MS/MS quantification.

[2] = HepG2 cytotoxicity assay (CCK-8, 96 h); assay type: cell-based, human; conditions: human, HepG2 cells, mean ± SEM
Procedure: The HepG2 (human hepatocellular carcinoma) cells were obtained from ATCC (American Type Culture Collection) and grown in RPMI media. Cytotoxicity assay was performed in 384-well format, and 25 µL, approximately 1.6 × 10^4 cells/mL, suspension was added to clear-bottom 384-well Griener plates and incubated in 5% CO2 incubator, at 37 °C for 24 h. Once the cells adhered, 125 nL of threefold serially diluted compounds in DMSO was added. Plates were incubated for 96 h, at 37 °C, in a 5% CO2 incubator. Plates were read for viability by adding 10 µL of CCK-8 reagent (APExBIO) into each well, followed by 3 h incubation and absorbance reading at […], using an Envision plate reader. […] Puromycin was used as a positive control. All experiments had two technical replicates and three biological replicates. Appropriate statistical tests were used for evaluating significance, and mean ± SEM is represented in the tables.

[3] = High-throughput thermodynamic solubility assay; assay type: physicochemical; conditions: for solubility: pH 6.8, thermodynamic from solid
Procedure: as §1

[4] = Per oral pharmacokinetics in mouse; assay type: in vivo; conditions: for AUC / Cmax: total
Procedure: Determination of intravenous (i.v.) and per oral (p.o.) pharmacokinetics (PK) were carried out by using male BALB/c mice. For i.v. PK studies, compounds were formulated at a concentration of 2.5 mg/mL in 75% PEG300 and 25% D5W (5% dextrose in distilled water). To avoid any granular material, the solution was filtered, using a 0.45 μm syringe filter. The filtered solutions were dosed intravenously to mice via the lateral tail vein, at 5 mg/kg, with a dosing volume of 2 mL/kg. For all the p.o. PK studies, compounds were resuspended in 0.5% v/v methyl cellulose in 0.5 % v/v tween 80 solution. For 20 mg/kg dosing, 200 µL of compounds was administered orally to mice. Six blood samples of 50 μL each were collected serially from each animal, up to 24 h after dosing. Blood samples were collected into heparin microtainers and centrifuged, and then plasma was separated and frozen until analysis. Plasma samples (20 μL) were extracted with acetonitrile:methanol (3:1) containing internal standard. The samples were vortexed and then centrifuged in an Eppendorf centrifuge 5810R, at a setting of 4000 rpm, for 5 min, at 4 °C. The supernatant was transferred to a 96-well analysis plate and analyzed, using optimized LC/MS/MS conditions. For every experiment, 3 mice were used per compound, per dose. The plasma concentration-time profile was obtained by plotting the mean value from the three animals at each time point. Various PK parameters, such as Cmax (maximum concentration), area under curve (AUC) and oral bioavailability (F) for compounds, were calculated by non-compartmental regression analysis, using an in-house fitting program developed at GNF [8]. All the in-life studies were carried out under protocols approved by the Animal Care and Use Committee (IACUC), following animal ethics guidelines of GNF.

[5] = test system: T. brucei PSMB4^WT; test: Growth inhibition of T. brucei expressing wild-type 20S proteasome β4 subunit; assay type: cell-based; conditions: Trypanosoma brucei, read-out: T. brucei PSMB4^WT EC50
Procedure: (§2) For determination of 50% growth inhibition, all compounds were dissolved in DMSO, and 200 nL of threefold serially diluted compounds were added into solid-bottom 384-well white plates (Greiner Bio-One, Kremsmunster, Austria) by an Echo 555 acoustic liquid-handling system. Forty microliters of 10^4 cells/mL of T. b. brucei parasites was added into each well, and the plates were incubated in a 5% CO2 incubator at 37 °C for 48 h. Viability of parasites were determined by measuring intracellular ATP levels, using CellTiter-Glo (CTG) luminescent cell viability reagent (Promega, Madison, Wisconsin WI, USA). The EC50 values were determined by using GraphPad Prism software. Growth inhibition assays for all clinical isolates were carried out as described earlier. All experiments had two technical replicates and three biological replicates. Appropriate statistical tests were used for evaluating significance, and mean ± SEM is represented in the tables.

[6] = test system: T. brucei PSMB4^F24L; test: Growth inhibition of T. brucei expressing F24L mutant 20S proteasome β4 subunit; assay type: cell-based, Trypanosoma brucei; conditions: Trypanosoma brucei, read-out: T. brucei PSMB4^F24L EC50
Procedure: as §2

[7] = Mouse plasma protein binding; assay type: in vitro ADME; conditions: for fraction unbound: mouse plasma
Procedure: as §1

[8] = test system: T. b. gambiense; test: Growth inhibition of T. b. gambiense strains; assay type: cell-based; conditions: Trypanosoma brucei, mean ± SD, read-out: T. b. gambiense EC50
[9] = test system: T. b. rhodesiense; test: Growth inhibition of T. b. rhodesiense strains; assay type: cell-based; conditions: Trypanosoma brucei, mean ± SD, read-out: T. b. rhodesiense EC50
[10] = test system: T. b. brucei; test: Growth inhibition of T. b. brucei strains BS221, BS221 (P2 KO), STIB950; assay type: cell-based; conditions: Trypanosoma brucei, mean ± SD, read-out: T. b. brucei EC50
Procedure: The T. b. brucei strain Lister 427 (bloodstream form) parasites were continuously grown in complete HMI-9 medium supplemented with 10% Serum Plus and 10% heat-inactivated fetal bovine serum (FBS). All other parasite strains were cultured as described elsewhere.
as §2, with “Appropriate statistical tests were used for evaluating significance, and mean ± SEM is represented in the tables.” left out

[11] = male, BALB/c, plasma, po, p.o. 20 mg/kg, 0 to infinity
[12] = male, BALB/c, plasma, po, p.o. 20 mg/kg
[13] = GAMBIENSE / STIB930, strain STIB930
[14] = RHODESIENSE / STIB900, strain STIB900
[15] = RHODESIENSE / STIB900, strain STIB900 Mel^R (melarsoprol-resistant)
[16] = RHODESIENSE / STIB900, strain STIB900 Pent^R (pentamidine-resistant)

| SMILES | BTB (rat brain tissue binding) [1] | CC50 at 96 h [2] | solubility [3] | AUC [4, 11] | Cmax [4, 12] | Tmax ([4]; p.o. 20 mg/kg) | Cmax, free fraction (value in parenthesis) ([4]; p.o. 20 mg/kg, free) | EC50 [5] | EC50 [6] | fraction unbound [7] | EC50 [8, 13] | EC50 ([8]; GAMBIENSE, strain K048) | EC50 ([8]; GAMBIENSE, strain R130) | EC50 [9, 14] | EC50 [9, 15] | EC50 [9, 16] | EC50 ([10]; STIB950, strain STIB950) | EC50 ([10]; strain BS221 (P2 KO)) | EC50 ([10]; strain BS221) | also measured |
| --- | --- | --- | --- | --- | --- | --- | --- | --- | --- | --- | --- | --- | --- | --- | --- | --- | --- | --- | --- | --- |
| Cc1nc(C)c(C(=O)Nc2ccc(F)c(-c3nc4ncc(C(C)(C)C)cn4n3)c2)o1 [NITD689] | 96.5% | > 20000 nM | 71 µg/mL (≈ 174 µM) | 89.7 µM·h | 12.2 µM | 0.5 H | 1156.2 nM | 20 ± 4 nM | 1900 ± 20 nM | 0.095 |  |  |  |  |  |  |  |  |  | bioavailability ([4]; male, BALB/c, plasma, po, p.o. 20 mg/kg, read-out: F (oral bioavailability)): 100% |
| Cc1nc(C)c(C(=O)Nc2ccc(F)c(-c3nc4ncc(-c5ccccc5)cn4n3)c2)o1 [GNF3849] | >99% | 1100 ± 200 nM | < 2 µg/mL | 108 µM·h | 7.16 µM | 3 H | < 71.6 nM | 10 ± 3 nM | 2200 ± 20 nM | < 0.01 | 4.5 ± 1 nM | 4.8 ± 1.1 nM | 1.9 ± 1 nM | 1.4 ± 1 nM | 0.6 nM | 1.7 ± 1 nM | 0.9 ± 0.2 nM | 4 ± 2.5 nM | 1.9 ± 0.8 nM | Solubility pH 6.8 ([3]; pH 6.8): poor; Exposure, fold less than GNF6702 ([4]; oral): ~ 2.5 fold; AUC, free fraction (value in parenthesis) ([4]; p.o. 20 mg/kg, 0 to infinity, free): < 1075.1 nM·h; Mouse plasma protein binding [7]: high |
| Cc1nc(C)c(C(=O)Nc2ccc(F)c(-c3nc4ncc(-c5ccccn5)cn4n3)c2)o1 [GNF6702] |  |  |  |  |  |  |  |  |  |  | 3.7 ± 2 nM | 3.5 ± 1.4 nM | 2.3 ± 1.1 nM | 1.6 ± 0.9 nM | 0.7 ± 0.2 nM | 1.2 ± 0.3 nM | 1.2 ± 0.5 nM | 3.5 ± 1.2 nM | 0.9 ± 0.3 nM |  |
